Assay results taken from US11759509B2, “WT1 antigen peptide conjugate vaccine” (Sumitomo Pharma Co., Ltd., priority 2013, dated 2023).
Positions of bridges follow the written chain, without caps; N, C: chain ends. Residues, ends and D or L forms follow the SMILES beside them. Chains are numbered I, II in the order given. No end group written: not given here.

Columns and labels:
physchem = settings: for solubility at 90 min: pH 6; for solubility thermodynamic at 90 min: pH 7.4
Description: Measurement of Solubility
(§1) 75% aqueous solution of disodium hydrogen phosphate and 5.53% aqueous solution of citric acid were mixed, and respective buffers (pH 6.0 and 7.4) were prepared.
(§2) About 1 mg of a test product was measured, an isotonic buffer (0.5 mL) was added, and this was used as a test solution. The prepared test solution was shaken at room temperature for 90 min (shaking conditions: RECIPRO SHAKER SR-1N manufactured by TAITEC, Speed=8), centrifuged (15000 rpm, 5 min, room temperature), and the supernatant after centrifugation was used as a test solution.
(§3) About 1 mg of the test product was accurately measured, dissolved in 0.1% TFA water/acetonitrile=1/1, made the total amount 10 mL, and this was used as a standard solution of the test product.
(§4) The standard solution of the test product and the test solution were analyzed by HPLC (analysis conditions described in Table 59), and the solubility of the test product was calculated from the peak area ratio of the standard solution.
(§5) • column: ChemcoPack Quicksorb (4.6 mmφ×150 mm, 5 μm) manufactured by Chemco Scientific Co., Ltd. • mobile phase: SOLUTION A; 0.1% TFA water, SOLUTION B; 0.1% TFA acetonitrile solution • column temperature: room temperature • flow rate: 1 mL/min • detection wavelength: UV 254 nm, 230 nm (2 wavelength detection) • sample injection volume: 10 μL

ERAP1 = ERAP1 (Homo sapiens, UniProt Q9NZ08); assay: Time-course changes of trimming of N-terminal amino acid by ERAP1; assay type: biochemical; settings: room temperature
Description: Time-Course Changes of Trimming of N-Terminal Amino Acid by ERAP1
30 μl of ERAP1 (2.0 mg/ml) in PBS buffer solution was added to 258 μl of Tris·HCl buffer. DMSO solution (12.0 μl) of 10 mM each peptide was added to the aforementioned ERAP1 solution, and the mixture was blended well and stood at room temperature. 1.0, 2.0, 4.0, 8.0 hr later, 50 μl of a sample was added to 150 μl of MeOH to terminate the reaction, 25 μl was injected into UFLC (analysis conditions shown below), and AUC of the object peptide was determined. […] Concentration of SOLUTION B was raised from 1.0% to 70% from 0.0 min to 5.0 min • 2. Concentration of SOLUTION B was raised from 1.0% to 50% from 0.0 min to 5.0 min • object peptide: […]

[1] = Measurement of solubility in isotonic buffer (pH 6.0 and 7.4); settings: isotonic disodium hydrogen phosphate/citric acid buffer
Description: Measurement of Solubility
as §1, §2, §3, §4, §5

ERAP1, sequence (Q9NZ08 whole entry): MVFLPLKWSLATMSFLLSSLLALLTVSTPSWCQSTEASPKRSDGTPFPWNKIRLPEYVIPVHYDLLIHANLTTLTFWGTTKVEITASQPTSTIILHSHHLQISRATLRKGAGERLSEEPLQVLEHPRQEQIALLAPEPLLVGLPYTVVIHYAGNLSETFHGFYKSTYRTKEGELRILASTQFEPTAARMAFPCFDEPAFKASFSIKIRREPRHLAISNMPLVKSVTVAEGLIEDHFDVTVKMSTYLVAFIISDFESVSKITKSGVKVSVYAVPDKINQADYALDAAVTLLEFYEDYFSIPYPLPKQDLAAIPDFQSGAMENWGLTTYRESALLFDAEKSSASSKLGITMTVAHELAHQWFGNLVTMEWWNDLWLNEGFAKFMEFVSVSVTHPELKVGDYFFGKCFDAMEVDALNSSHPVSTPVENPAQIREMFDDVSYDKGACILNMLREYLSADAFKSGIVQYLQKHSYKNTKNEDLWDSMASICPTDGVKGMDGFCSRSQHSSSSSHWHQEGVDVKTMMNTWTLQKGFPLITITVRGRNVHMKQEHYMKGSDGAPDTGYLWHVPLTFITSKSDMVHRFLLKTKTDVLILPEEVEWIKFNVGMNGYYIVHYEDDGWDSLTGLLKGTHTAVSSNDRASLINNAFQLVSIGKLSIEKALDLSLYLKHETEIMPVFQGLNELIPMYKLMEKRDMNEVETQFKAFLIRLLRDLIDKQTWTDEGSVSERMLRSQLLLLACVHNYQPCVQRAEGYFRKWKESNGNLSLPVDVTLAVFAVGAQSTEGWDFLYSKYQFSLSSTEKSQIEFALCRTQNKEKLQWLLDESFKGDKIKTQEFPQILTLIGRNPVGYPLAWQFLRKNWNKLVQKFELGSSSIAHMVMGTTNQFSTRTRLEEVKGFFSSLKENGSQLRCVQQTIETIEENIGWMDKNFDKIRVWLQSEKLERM

Row | solubility at 90 min (physchem) [µg/mL] | solubility thermodynamic at 90 min (physchem) [µg/mL] | Compound | also measured
1 | > 1000 | 712 | CNKRYFKLSHLQMHSRKH [SEQ ID NO: 23] | 
2 | > 1000 | > 1000 | SLGEQQYSV [SEQ ID NO: 6] | 
3 | > 1000 | 556 | CNKRYFKLSHLQMHSRKHTG [SEQ ID NO: 24] | 
4 | > 1000 | > 1000 | ALLPAVPSL [SEQ ID NO: 5] | 
5 | > 1000 | 931 | CNKRYFKLSHLQMHSRK [SEQ ID NO: 22] | 

The next lines start with the compound.

Row | Compound | solubility at 90 min (physchem) [µg/mL] | solubility thermodynamic at 90 min (physchem) [µg/mL] | also measured
6 | CSCC[C@H](NC(=O)[C@H](CCC(N)=O)NC(=O)[C@H](CC(C)C)NC(=O)[C@H](Cc1c[nH]cn1)NC(=O)[C@H](CO)NC(=O)[C@H](CC(C)C)NC(=O)[C@H](CCCCN)NC(=O)[C@H](Cc1ccccc1)NC(=O)[C@H](Cc1ccc(O)cc1)NC(=O)[C@H](CCCNC(=N)N)NC(=O)[C@H](CCCCN)NC(=O)[C@H](CC(N)=O)NC(=O)[C@@H](N)CSSC[C@H](N)C(=O)N[C@@H](C)C(=O)N[C@@H](CC(C)C)C(=O)N[C@@H](CC(C)C)C(=O)N1CCC[C@H]1C(=O)N[C@@H](C)C(=O)N[C@H](C(=O)N1CCC[C@H]1C(=O)N[C@@H](CO)C(=O)N[C@@H](CC(C)C)C(=O)O)C(C)C)C(=O)N[C@@H](Cc1c[nH]cn1)C(=O)N[C@@H](CO)C(=O)N[C@@H](CCCNC(=N)N)C(=O)N[C@@H](CCCCN)C(=O)N[C@@H](Cc1c[nH]cn1)C(=O)N[C@H](C(=O)NCC(=O)O)[C@@H](C)O [formula (9)] (I: H-CNKRYFKLSHLQMHSRKHTG-OH / II: H-CALLPAVPSL-OH; disulfide I:1-II:1) | > 1000 | 565 | 
7 | CSCC[C@H](NC(=O)[C@H](CCC(N)=O)NC(=O)[C@H](CC(C)C)NC(=O)[C@H](Cc1c[nH]cn1)NC(=O)[C@H](CO)NC(=O)[C@H](CC(C)C)NC(=O)[C@H](CCCCN)NC(=O)[C@H](Cc1ccccc1)NC(=O)[C@H](Cc1ccc(O)cc1)NC(=O)[C@H](CCCNC(=N)N)NC(=O)[C@H](CCCCN)NC(=O)[C@H](CC(N)=O)NC(=O)[C@@H](N)CSSC[C@H](N)C(=O)N[C@@H](CCCNC(=N)N)C(=O)N[C@@H](CCSC)C(=O)N[C@@H](Cc1ccccc1)C(=O)N1CCC[C@H]1C(=O)N[C@@H](CC(N)=O)C(=O)N[C@@H](C)C(=O)N1CCC[C@H]1C(=O)N[C@@H](Cc1ccc(O)cc1)C(=O)N[C@@H](CC(C)C)C(=O)O)C(=O)N[C@@H](Cc1c[nH]cn1)C(=O)N[C@@H](CO)C(=O)N[C@@H](CCCNC(=N)N)C(=O)N[C@@H](CCCCN)C(=O)N[C@@H](Cc1c[nH]cn1)C(=O)N[C@H](C(=O)NCC(=O)O)[C@@H](C)O [formula (6)] (I: H-CNKRYFKLSHLQMHSRKHTG-OH / II: H-CRMFPNAPYL-OH; disulfide I:1-II:1) | > 1000 | 279 | 
8 | CSCC[C@H](NC(=O)[C@@H](N)CCCNC(=N)N)C(=O)N[C@@H](Cc1ccccc1)C(=O)N1CCC[C@H]1C(=O)N[C@@H](CC(N)=O)C(=O)N[C@@H](C)C(=O)N1CCC[C@H]1C(=O)N[C@@H](Cc1ccc(O)cc1)C(=O)N[C@@H](CC(C)C)C(=O)O [SEQ ID NO: 2] | > 1000 | > 1000 | 
9 | CSLGEQQYSV [Example 5] |  |  | formation rate (%) of the peptide obtained by trimming, 1 hr later (ERAP1): 77.6%; formation rate (%) of the peptide obtained by trimming, 2 hr later (ERAP1): 72.8%; formation rate (%) of the peptide obtained by trimming, 4 hr later (ERAP1): 46.0%; formation rate (%) of the peptide obtained by trimming, 8 hr later (ERAP1): 7.90%
10 | CSCC[C@H](NC(=O)[C@H](CCCNC(=N)N)NC(=O)[C@@H](N)CSSC[C@H](N)C(=O)N[C@@H](CO)C(=O)N[C@@H](CC(C)C)C(=O)NCC(=O)N[C@@H](CCC(=O)O)C(=O)N[C@@H](CCC(N)=O)C(=O)N[C@@H](CCC(N)=O)C(=O)N[C@@H](Cc1ccc(O)cc1)C(=O)N[C@@H](CO)C(=O)N[C@H](C(=O)O)C(C)C)C(=O)N[C@@H](Cc1ccccc1)C(=O)N1CCC[C@H]1C(=O)N[C@@H](CC(N)=O)C(=O)N[C@@H](C)C(=O)N1CCC[C@H]1C(=O)N[C@@H](Cc1ccc(O)cc1)C(=O)N[C@@H](CC(C)C)C(=O)O [formula (3)] (I: H-CRMFPNAPYL-OH / II: H-CSLGEQQYSV-OH; disulfide I:1-II:1) | > 1000 | > 1000 | 
11 | CALLPAVPSL [Example 3] |  |  | formation rate (%) of the peptide obtained by trimming, 1 hr later (ERAP1): 65.5%; formation rate (%) of the peptide obtained by trimming, 2 hr later (ERAP1): 50.6%; formation rate (%) of the peptide obtained by trimming, 4 hr later (ERAP1): 13.5%; formation rate (%) of the peptide obtained by trimming, 8 hr later (ERAP1): 0%
12 | CYTWNQMNL [SEQ ID NO: 4] |  |  | solubility at 90 min ([1]; pH 6): 106 µg/mL; solubility thermodynamic at 90 min ([1]; pH 7.4): 167 µg/mL
13 | CRVPGVAPTL [Example 4] |  |  | formation rate (%) of the peptide obtained by trimming, 1 hr later (ERAP1): 59.1%; formation rate (%) of the peptide obtained by trimming, 2 hr later (ERAP1): 57.5%; formation rate (%) of the peptide obtained by trimming, 4 hr later (ERAP1): 30.1%; formation rate (%) of the peptide obtained by trimming, 8 hr later (ERAP1): 7.80%
14 | CSCC[C@H](NC(=O)[C@H](CCC(N)=O)NC(=O)[C@H](CC(N)=O)NC(=O)[C@H](Cc1c[nH]c2ccccc12)NC(=O)[C@@H](NC(=O)[C@H](Cc1ccc(O)cc1)NC(=O)[C@@H](N)CSSC[C@H](N)C(=O)N[C@@H](CCCNC(=N)N)C(=O)N[C@@H](CCSC)C(=O)N[C@@H](Cc1ccccc1)C(=O)N1CCC[C@H]1C(=O)N[C@@H](CC(N)=O)C(=O)N[C@@H](C)C(=O)N1CCC[C@H]1C(=O)N[C@@H](Cc1ccc(O)cc1)C(=O)N[C@@H](CC(C)C)C(=O)O)[C@@H](C)O)C(=O)N[C@@H](CC(N)=O)C(=O)N[C@@H](CC(C)C)C(=O)O [formula (5)] (I: H-CRMFPNAPYL-OH / II: H-CYTWNQMNL-OH; disulfide I:1-II:1) | 511 | 200 | 
15 | CSCC[C@H](NC(=O)[C@H](CCC(N)=O)NC(=O)[C@H](CC(C)C)NC(=O)[C@H](Cc1c[nH]cn1)NC(=O)[C@H](CO)NC(=O)[C@H](CC(C)C)NC(=O)[C@H](CCCCN)NC(=O)[C@H](Cc1ccccc1)NC(=O)[C@H](Cc1ccc(O)cc1)NC(=O)[C@H](CCCNC(=N)N)NC(=O)[C@H](CCCCN)NC(=O)[C@H](CC(N)=O)NC(=O)[C@@H](N)CSSC[C@H](N)C(=O)N[C@@H](CCCNC(=N)N)C(=O)N[C@@H](CCSC)C(=O)N[C@@H](Cc1ccccc1)C(=O)N1CCC[C@H]1C(=O)N[C@@H](CC(N)=O)C(=O)N[C@@H](C)C(=O)N1CCC[C@H]1C(=O)N[C@@H](Cc1ccc(O)cc1)C(=O)N[C@@H](CC(C)C)C(=O)O)C(=O)N[C@@H](Cc1c[nH]cn1)C(=O)N[C@@H](CO)C(=O)N[C@@H](CCCNC(=N)N)C(=O)N[C@@H](CCCCN)C(=O)O [formula (8)] (I: H-CNKRYFKLSHLQMHSRK-OH / II: H-CRMFPNAPYL-OH; disulfide I:1-II:1) | > 1000 | 789 | 
